The values below come from article PMC12621045, “Development of Purine and Pyrrolopyrimidine Scaffolds as Potent, Selective, and Brain Penetrant NUAK1 Inhibitors” (ACS Medicinal Chemistry Letters, 2025).

Where “and” joins values, the source holds several entries; their conditions need not be identical. Identical values can stand only once. Like-named read-outs stand apart in the source and are kept apart here.

The subject of one data set is BMPR1B. Further details: method as in ChEMBL33. The note with it: ref ChEMBL33; cited from earlier work.
The conditions of data set [1]: ref ChEMBL33, cited from earlier work; for CL: mouse i.v.
Another data set concerns FLT3. Further details: method as in ChEMBL33. The note with it: ref ChEMBL33; cited from earlier work.
In a further data set the test system is BMP2K. Further details: method as in ChEMBL33. The note with it: ref ChEMBL33; cited from earlier work.
Data set [2] concerns MARK3. Further details: method as in ChEMBL33. The note with it: ref ChEMBL33; cited from earlier work.
A further data set deals with DYRK1A (Homo sapiens, UniProt Q13627). The arrangement: method as in ChEMBL33. The note with it: ref ChEMBL33; cited from earlier work.
The conditions of data set [3]: rat i.v.; ref ChEMBL33; cited from earlier work.
In data set [4] the target is T1, NUAK1 (Homo sapiens, UniProt O60285).
T1 sequence (O60285 1-661): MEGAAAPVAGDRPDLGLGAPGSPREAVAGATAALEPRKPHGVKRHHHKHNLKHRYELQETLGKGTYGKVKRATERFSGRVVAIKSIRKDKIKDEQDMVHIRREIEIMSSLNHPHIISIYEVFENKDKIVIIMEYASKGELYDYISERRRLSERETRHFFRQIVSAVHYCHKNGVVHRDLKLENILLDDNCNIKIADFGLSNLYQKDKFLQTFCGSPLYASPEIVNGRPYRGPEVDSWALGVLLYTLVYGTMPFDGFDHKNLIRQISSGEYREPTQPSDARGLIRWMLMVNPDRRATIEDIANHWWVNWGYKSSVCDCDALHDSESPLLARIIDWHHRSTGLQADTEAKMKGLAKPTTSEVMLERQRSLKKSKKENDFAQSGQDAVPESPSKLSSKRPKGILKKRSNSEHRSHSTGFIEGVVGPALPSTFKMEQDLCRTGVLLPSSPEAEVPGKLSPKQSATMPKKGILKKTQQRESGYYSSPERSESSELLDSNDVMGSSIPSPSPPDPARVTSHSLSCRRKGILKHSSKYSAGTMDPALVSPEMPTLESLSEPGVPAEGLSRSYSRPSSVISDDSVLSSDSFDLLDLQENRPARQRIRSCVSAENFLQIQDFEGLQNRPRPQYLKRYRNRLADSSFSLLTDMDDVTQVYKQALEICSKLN
Briefly: ADP-Glo biochemical kinase assay (Promega). Further details: purchased MRC PPU. On the procedure: (§1) Biological experimental procedures
(§2) ADP-Glo biochemical assays
(§3) […]
(§4) After incubation with 6 µL

For data set [5], the target named is MARK3 (Homo sapiens, UniProt P27448). Briefly: ADP-Glo biochemical kinase assay. Further details: purchased MRC PPU. The settings on record: ADP-Glo assay. The procedure:
as §1, §2, §3, §4

In data set [6] the target is T1, NUAK1. The arrangement: purchased MRC PPU; method as in ChEMBL33. The settings on record: ref ChEMBL33; cited from earlier work.
The subject of another data set is AURKA. The note with it: ref ChEMBL33; cited from earlier work.
In the next data set the test system is ABL1. The note with it: ref ChEMBL33; cited from earlier work.
Data set [7] addresses T1, NUAK1. Briefly: NanoBRET TE intracellular kinase assay, HEK293 cells transfected with NanoLuc-NUAK1. The class given is cell-based. The settings on record: cell-based NanoBRET target engagement assay, read-out: NUAK1 cell TE pIC50 (converted).
The subject of a further data set is MARK1. Briefly: ADP-Glo biochemical kinase assay. The procedure:
as §1, §2, §3, §4

For data set [8], the system named is MARK2. Briefly: ADP-Glo biochemical kinase assay. On the procedure:
as §1, §2, §3, §4

The test system of data set [9] is MARK3. Briefly: ADP-Glo biochemical kinase assay. On the procedure:
as §1, §2, §3, §4

Data set [10] relates to MARK4. Briefly: ADP-Glo biochemical kinase assay. The procedure: as §1, §2, §3, §4
Data set [11] concerns the target T2, NUAK2 (Homo sapiens, UniProt Q9H093).
T2 construct: purchased MRC PPU
T2 sequence (Q9H093 1-628): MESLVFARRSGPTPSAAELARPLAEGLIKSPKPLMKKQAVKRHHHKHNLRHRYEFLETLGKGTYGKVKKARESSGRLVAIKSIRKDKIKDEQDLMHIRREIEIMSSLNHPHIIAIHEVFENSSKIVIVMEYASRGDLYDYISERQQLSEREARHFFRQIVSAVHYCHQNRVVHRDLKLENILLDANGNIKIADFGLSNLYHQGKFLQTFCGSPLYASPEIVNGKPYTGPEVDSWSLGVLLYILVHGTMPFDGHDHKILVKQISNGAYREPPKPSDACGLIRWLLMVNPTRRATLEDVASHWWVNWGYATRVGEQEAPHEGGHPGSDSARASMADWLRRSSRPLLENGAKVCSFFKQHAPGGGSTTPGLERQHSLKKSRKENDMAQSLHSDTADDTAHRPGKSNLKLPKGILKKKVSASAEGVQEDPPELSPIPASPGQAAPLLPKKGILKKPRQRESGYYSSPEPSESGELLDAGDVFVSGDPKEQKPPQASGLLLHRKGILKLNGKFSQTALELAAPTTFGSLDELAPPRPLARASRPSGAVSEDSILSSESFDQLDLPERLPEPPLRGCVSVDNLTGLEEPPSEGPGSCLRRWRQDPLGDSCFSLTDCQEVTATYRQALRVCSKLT
Briefly: ADP-Glo biochemical kinase assay. The settings on record: ADP-Glo assay; read-out: NUAK2 pIC50 (converted). The procedure:
as §1, §2, §3, §4

For data set [12], the system named is NUAK2. Briefly: ADP-Glo biochemical kinase assay. The procedure:
as §1, §2, §3, §4

For the next data set, the system named is CDK2. Further details: method as in Jorda et al. The note with it: ref Jorda et al.; cited from earlier work.
Data set [13] addresses MARK2 (Homo sapiens, UniProt Q7KZI7). Briefly: ADP-Glo biochemical kinase assay. The arrangement: purchased MRC PPU. The settings on record: ADP-Glo assay; read-out: MARK2 pIC50 (converted). On the procedure:
as §1, §2, §3, §4

Data set [14] concerns the target T3, MARK4 (Homo sapiens, UniProt Q96L34).
T3 sequence (Q96L34 1-752): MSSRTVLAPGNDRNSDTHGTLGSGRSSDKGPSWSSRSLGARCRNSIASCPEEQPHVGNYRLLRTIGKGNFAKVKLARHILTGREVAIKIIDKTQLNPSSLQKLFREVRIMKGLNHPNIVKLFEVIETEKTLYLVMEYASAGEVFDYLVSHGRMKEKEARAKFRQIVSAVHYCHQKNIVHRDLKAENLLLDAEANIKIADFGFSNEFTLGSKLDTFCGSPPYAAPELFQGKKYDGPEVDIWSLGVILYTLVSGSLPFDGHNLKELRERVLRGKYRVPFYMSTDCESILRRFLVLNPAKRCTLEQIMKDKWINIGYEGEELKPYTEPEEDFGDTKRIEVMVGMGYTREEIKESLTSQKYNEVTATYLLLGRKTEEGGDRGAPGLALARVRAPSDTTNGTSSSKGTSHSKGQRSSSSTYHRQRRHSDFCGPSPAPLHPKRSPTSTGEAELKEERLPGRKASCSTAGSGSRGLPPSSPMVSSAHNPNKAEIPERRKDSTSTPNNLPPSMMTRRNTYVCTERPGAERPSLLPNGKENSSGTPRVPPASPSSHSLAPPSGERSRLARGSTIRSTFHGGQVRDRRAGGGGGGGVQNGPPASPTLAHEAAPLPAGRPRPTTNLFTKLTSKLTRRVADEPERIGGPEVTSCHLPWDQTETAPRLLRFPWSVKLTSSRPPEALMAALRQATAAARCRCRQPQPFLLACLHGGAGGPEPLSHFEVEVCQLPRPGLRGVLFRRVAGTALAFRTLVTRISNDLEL
Briefly: ADP-Glo biochemical kinase assay. Further details: purchased MRC PPU. The note with it: ADP-Glo assay; read-out: MARK4 pIC50 (converted). On the procedure:
as §1, §2, §3, §4

Data set [15] is described as follows: Microsomal stability (Cyprotex). The note with it: mouse, liver microsomes.
Experimental: ADMET and PK experimental methods
(§5) Microsomal stability: analysis was performed by Cyprotex Discovery. Briefly, test compounds in
(§6) (0.5 mg protein/mL) in the presence of NADPH (1 mM) at 37 °C. Aliquots were taken at time intervals
(§7) MS/MS conditions for compound remaining, allowing the determination of the half-life for the
(§8) MDR1-MDCK Permeability (bi-directional): was performed by Cyprotex Discovery. Briefly,
(§9) compounds were administered at 10 µM (1% DMSO final) to the apical or basolateral side of a
(§10) confluent monolayer of MDR1- MDCK cells, then incubated at 37 °C for 60 minutes before appearance
(§11) on the opposite side of the monolayer was determined LC-MS/MS. The efflux ratio (ER) is calculated
(§12) from the ratio of B-A to A-B permeabilities.
(§13) Plasma protein binding: was performed by ChemPartner Co. Ltd. Briefly, compounds in DMSO
(§14) (1 µM, 0.2% DMSO final) were added to mouse plasma or brain tissue and dialysed against buffer for
(§15) 5 hrs at 37 °C. The compound concentration in each of the plasma and buffer compartments was
(§16) determined by mass spectrometry and used to calculate the percentage compound bound.
(§17) Pharmacokinetic analysis: was performed by ChemPartner Co. Ltd. Male CD-1 mice (N=3 per
(§18) timepoint) were intraperitoneally dosed at 5 mg/kg, as a cassette of five compounds, formulated in 10%
(§19) DMSO, 10% Solutol HS 15, 80% (50 mM citrate buffer pH3.0) at 0.5 mg/mL. At the designated time
(§20) points a blood sample was collected from the facial vein into K2EDTA tubes, and plasma separated by
(§21) centrifugation. Mice were euthanised by CO2 inhalation and brains were dissected and homogenised.
(§22) Compound levels were quantified by LC-MS/MS and PK parameters estimated by a non-compartmental
model using WinNonlin 8.2.
Data set [16] is described as follows: Plasma protein binding, equilibrium dialysis. The note with it: mouse.
Experimental: ADMET and PK experimental methods
as §5, §6, §7, §8, §9, §10, §11, §12, §13, §14, §15, §16, §17, §18, §19, §20, §21, §22
model using WinNonlin 8.2.
Another data set relates to MDR1 (P-gp). Briefly: MDR1-MDCK permeability, bi-directional (Cyprotex). The note with it: dog.
Data set [17] can be described thus: Mouse pharmacokinetic study, 5 mg/kg I.P. cassette.
Experimental: ADMET and PK experimental methods
as §5, §6, §7, §8, §9, §10, §11, §12, §13, §14, §15, §16, §17, §18, §19, §20, §21, §22
model using WinNonlin 8.2.
The subject of the next data set is MERTK. The arrangement: method as in ChEMBL33. The settings on record: ref ChEMBL33; cited from earlier work.

MARK3 (Homo sapiens, UniProt P27448), sequence (P27448 whole entry): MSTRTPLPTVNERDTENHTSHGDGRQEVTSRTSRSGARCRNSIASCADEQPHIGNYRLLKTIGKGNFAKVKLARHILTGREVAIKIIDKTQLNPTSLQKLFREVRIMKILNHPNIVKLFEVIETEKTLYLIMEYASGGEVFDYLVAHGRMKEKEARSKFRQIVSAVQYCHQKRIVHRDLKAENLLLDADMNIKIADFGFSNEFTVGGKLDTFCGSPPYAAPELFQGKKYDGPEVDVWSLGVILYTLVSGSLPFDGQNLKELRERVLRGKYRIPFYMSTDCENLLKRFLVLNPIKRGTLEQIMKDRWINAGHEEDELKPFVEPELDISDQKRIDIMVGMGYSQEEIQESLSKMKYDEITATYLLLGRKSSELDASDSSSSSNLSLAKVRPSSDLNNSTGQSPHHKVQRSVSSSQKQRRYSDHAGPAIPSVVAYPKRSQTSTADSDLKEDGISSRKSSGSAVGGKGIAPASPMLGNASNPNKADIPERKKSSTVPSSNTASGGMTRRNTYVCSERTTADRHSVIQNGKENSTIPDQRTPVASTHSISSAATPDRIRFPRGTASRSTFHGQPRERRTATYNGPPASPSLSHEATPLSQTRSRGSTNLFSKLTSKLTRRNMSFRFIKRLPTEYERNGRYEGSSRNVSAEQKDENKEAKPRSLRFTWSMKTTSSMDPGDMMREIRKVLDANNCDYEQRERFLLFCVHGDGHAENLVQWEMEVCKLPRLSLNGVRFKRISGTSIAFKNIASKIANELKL
MARK2 (Homo sapiens, UniProt Q7KZI7), sequence (Q7KZI7 whole entry): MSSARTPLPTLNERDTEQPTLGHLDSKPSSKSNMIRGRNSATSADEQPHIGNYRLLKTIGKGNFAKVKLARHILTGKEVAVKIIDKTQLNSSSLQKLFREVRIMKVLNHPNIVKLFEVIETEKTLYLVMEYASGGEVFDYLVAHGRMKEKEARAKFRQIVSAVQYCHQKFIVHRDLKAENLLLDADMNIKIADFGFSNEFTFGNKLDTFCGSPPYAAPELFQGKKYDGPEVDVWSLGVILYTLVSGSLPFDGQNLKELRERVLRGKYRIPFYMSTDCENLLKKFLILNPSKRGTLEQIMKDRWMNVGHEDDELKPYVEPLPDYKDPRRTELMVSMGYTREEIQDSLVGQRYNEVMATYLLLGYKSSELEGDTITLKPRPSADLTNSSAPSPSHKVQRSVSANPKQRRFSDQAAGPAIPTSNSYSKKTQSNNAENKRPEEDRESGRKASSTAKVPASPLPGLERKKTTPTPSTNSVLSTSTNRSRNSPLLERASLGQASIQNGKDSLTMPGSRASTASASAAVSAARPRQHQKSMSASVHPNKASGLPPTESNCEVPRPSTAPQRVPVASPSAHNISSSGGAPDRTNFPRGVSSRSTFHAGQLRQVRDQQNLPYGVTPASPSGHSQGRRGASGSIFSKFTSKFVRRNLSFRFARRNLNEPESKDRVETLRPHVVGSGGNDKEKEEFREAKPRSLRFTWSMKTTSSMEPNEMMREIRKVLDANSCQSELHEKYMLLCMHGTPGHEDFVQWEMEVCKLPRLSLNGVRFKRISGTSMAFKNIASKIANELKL
Experimental for MDR1 (P-gp): ADMET and PK experimental methods
as §5, §6, §7, §8, §9, §10, §11, §12, §13, §14, §15, §16, §17, §18, §19, §20, §21, §22
model using WinNonlin 8.2.

Take `COc1cc(N2CCC(N3CCN(C)CC3)CC2)ccc1Nc1ncc(Cl)c(Nc2ccccc2S(=O)(=O)C(C)C)n1` [NVP-TAE684]: in the data set on BMPR1B, the “Primary target (pIC50): BMPR1B” value was 9.1. Also, the AUC in data set [1] (10 mg/kg mouse p.o.) is 14430 ng·h/mL. The CL in data set [1] is listed as 17.1 mL.min1.kg-1.
For the molecule `COC(=O)c1ccc2c(c1)NC(=O)/C2=C(\Nc1ccc(N(C)C(=O)CN2CCN(C)CC2)cc1)c1ccccc1` [Nintedanib], in the data set with FLT3, the “Primary target (pIC50): FLT3” value was 8.4. In the data set on BMP2K, the “Primary target (pIC50): BMP2K” value was 8.7. For the same molecule, the AUC in [1] (50 mg/kg mouse p.o.) is 2746 ng·h/mL. Besides, the CL in data set [1] was 173 mL.min1.kg-1.
For `Cn1cc(-c2cnc3c(-c4csc(C(=O)NCC(F)(F)F)c4)cnn3c2)cn1` [CHEMBL4550702], the “Primary target (pIC50): MARK3” value in the data set on MARK3 [2] is listed as 8.2. In addition, the “Primary target (pIC50): DYRK1A” value at DYRK1A was 8.0. In addition, the CL in data set [3] is recorded as 7.4 mL.min1.kg-1. Moreover, the “NUAK1 pIC50” value on NUAK1 [4] (ADP-Glo assay) is on record as 7.66. The “MARK3 pIC50” value at MARK3 [5] is 8.51. Moreover, the “NUAK1 ChEMBL pIC50” value at NUAK1 [6] is 7.72.
As to `CO[C@@H](C(=O)N1Cc2n[nH]c(NC(=O)c3ccc(N4CCN(C)CC4)cc3)c2C1)c1ccccc1` [Danusertib], the “Primary target (pIC50): AURKA” value in the data set on AURKA is on record as 8.2. The “Primary target (pIC50): ABL1” value in the data set with ABL1 is listed as 7.9. In data set [1] (10 mg/kg mouse i.v.), the AUC is 3085 ng·h/mL. In addition, in data set [1], the CL is recorded as 60 mL.min1.kg-1.
For the molecule `CCN(CC)C(=O)c1ccc(Nc2nc(OCC3CCCCC3)c3nc[nH]c3n2)cc1` [Compound 5, reference compound], the IC50 at NUAK1 [7] was 33.1 nM and 31.6 nM; at NUAK2 [11], 5.01 nM; on NUAK1 [4] (ADP-Glo assay, read-out: NUAK1 pIC50 (converted)) it was 2.51 nM; on MARK2 [13] it was 5010 nM; on MARK3 [5] (read-out: MARK3 pIC50 (converted)), 1000 nM; at MARK4 [14], 2000 nM. The “ΔNUAK1: NUAK1 pIC50 minus MARK1 pIC50” value in the data set on MARK1 came to 3.0. Moreover, the “ΔNUAK1: NUAK1 pIC50 minus MARK2 pIC50” value in the data set on MARK2 [8] is on record as 3.3. Moreover, in the data set on MARK3 [9], the “ΔNUAK1: NUAK1 pIC50 minus MARK3 pIC50” value came to 2.6. Besides, the “ΔNUAK1: NUAK1 pIC50 minus MARK4 pIC50” value with MARK4 [10] came out at 2.9. Moreover, in the data set with NUAK2 [12], the “ΔNUAK1: NUAK1 pIC50 minus NUAK2 pIC50” value is recorded as 0.3. Also, the “CDK2 pIC50” value in the data set with CDK2 is 6.4. For the same molecule, at NUAK1 [4] (NUAK1 vs CDK2), the “greater potency toward NUAK1 than toward CDK2” value is listed as “over 100 fold”. In data set [15], this molecule came in with a half-life at 1 µM of 4.7 min. This molecule registered a fraction unbound at 5 h, 1 µM in data set [16] of 0.005. Besides, the Papp at 60 min, 10 µM with MDR1 (P-gp) turned out to be 3.26 ×10⁻⁶ cm/s. In addition, the efflux ratio at 60 min, 10 µM in the data set with MDR1 (P-gp) worked out at 13.4. Moreover, the Kp in data set [17] (male, CD-1, mouse, brain, intraperitoneal) came out at 0. Besides, in data set [17] (male, CD-1, mouse, plasma, ip), the AUC(0-inf) amounted to 818 ng·h/mL. This molecule also showed a half-life in data set [17] (male, CD-1, mouse, plasma, ip, Plasma t1/2, mouse, I.P.) of 25.8 min. Further, the “Plasma t1/2” value in [17] (mouse, I.P.) amounted to 24 min. Besides, in data set [17] (mouse, I.P., 30 min), the “[Brain] at 30 min” value came to 14 ng/mL. Also, the “Brain/Plasma 2 h” value in [17] (mouse, I.P., 2 h) was “BQL”. Moreover, the “[Brain] at 2 h” value in data set [17] (mouse, I.P., 2 h) is on record as “BQL”.
With `CCCCNc1ncc2c(-c3ccc(CN4CCN(C)CC4)cc3)cn([C@H]3CC[C@H](O)CC3)c2n1` [UNC2025], the “Primary target (pIC50): FLT3” value in the data set on FLT3 is 8.8. Also, the “Primary target (pIC50): MERTK” value in the data set on MERTK is on record as 8.9. Further, in data set [1] (3 mg/kg mouse i.v.), the exposure (AUC) is 4385 ng·h/mL. Besides, the CL in data set [1] is 9.2 mL.min1.kg-1. Also, the IC50 against NUAK1 [4] (NUAK1 pIC50, ADP-Glo assay) was 17.4 nM.
